Assay results as given in ChEMBL document CHEMBL2203092, “Clerodane diterpenoids from Croton crassifolius” (J Nat Prod, 2012).
Converted amounts (≈) assume the structure as drawn.

The molecules below were run on Human alphaherpesvirus 1 (assay: Antiviral activity against HSV1 F ATCC VR733 infected in african green monkey Vero cells assessed as reduction of virus-induced cytopathic effect after 3 days). Conditions: Human alphaherpesvirus 1, Strain F ATCC VR 733, Vero, 72 h.
Type: functional, organism-based
An IC50 of 25 µg/mL (≈ 72.2 µM) was found for `C[C@@H]1CC(=O)[C@@H]2[C@@H](C(=O)O)CCC[C@H]2[C@@]12C[C@@H](c1ccoc1)OC2=O` in this work. An IC50 of 0.2 µg/mL (≈ 0.888 µM) was found for `Nc1nc2c(ncn2COCCO)c(=O)[nH]1` [ACYCLOVIR] in this work. An IC50 of 50 µg/mL (≈ 140 µM) was found for `COC(=O)[C@@]1(C)CC(=O)C=C2C1=CC[C@@H](C)[C@]2(C)CC(=O)c1ccoc1` [CRASSIFOLIN C] in this work. An IC50 of 50 µg/mL (≈ 134 µM) was found for `COC(=O)[C@]12CCCC3=C1[C@@H](C[C@H](C)[C@@]31C[C@H](c3ccoc3)OC1=O)OC2` [CRASSIFOLIN D] in this work. An IC50 of 50 µg/mL (≈ 120 µM) was found for `COC(=O)[C@@]1(C)C2=C(CC[C@H]1OC(C)=O)[C@@]1(C[C@@H](c3ccoc3)OC1=O)[C@H](C)CC2` [CRASSIFOLIN F] in this work. An IC50 of 50 µg/mL (≈ 139 µM) was found for `COC(=O)[C@]1(C)CCCC2=C1CC[C@@H](C)[C@]21C[C@@H](c2ccoc2)OC1=O` [PENDULIFLAWOROSIN] in this work.
